Common to all, as to format: cell-based
Test [1] concerns the target T1, human muscarinic M2 receptor (Homo sapiens, UniProt P08172).
T1 sequence (P08172 1-466): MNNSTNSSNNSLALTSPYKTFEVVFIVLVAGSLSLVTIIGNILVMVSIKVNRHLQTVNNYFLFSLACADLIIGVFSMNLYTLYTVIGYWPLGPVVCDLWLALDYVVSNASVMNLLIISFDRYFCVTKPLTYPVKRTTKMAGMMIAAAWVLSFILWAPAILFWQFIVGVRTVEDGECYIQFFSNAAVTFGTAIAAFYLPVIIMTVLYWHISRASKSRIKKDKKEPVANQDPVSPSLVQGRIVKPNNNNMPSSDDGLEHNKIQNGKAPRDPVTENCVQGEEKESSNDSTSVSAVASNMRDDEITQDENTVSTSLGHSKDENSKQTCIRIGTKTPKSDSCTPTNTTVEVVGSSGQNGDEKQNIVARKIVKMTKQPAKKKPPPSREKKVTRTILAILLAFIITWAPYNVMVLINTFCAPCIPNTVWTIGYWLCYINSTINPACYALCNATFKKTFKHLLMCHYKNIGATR
The test is described as follows: Alphascreen Surefire phospho-ERK1/2 functional assay, M2. The following applies: for EC50: CHO cells stably expressing human M2, phospho-ERK1/2, read-out: pEC50 M2 (converted); for Emax: CHO, read-out: M2 % Emax cf. ACh. As for the experimental part: (§1) Functional assays were performed using the Alphascreen Surefire phospho-ERK1/2 assay (Crouch & Osmond, Comb. Chem. High Throughput Screen, 2008). ERK1/2 phosphorylation is a downstream consequence of both Gq/11 and Gi/o protein coupled receptor activation, making it highly suitable for the assessment of M1, M3 (Gq/11 coupled) and M2, M4 receptors (Gi/o coupled), rather than using different assay formats for different receptor subtypes. CHO cells stably expressing the human muscarinic M1, M2, M3 or M4 receptor were plated (25K/well) onto 96-well tissue culture plates in MEM-alpha+10% dialysed FBS. Once adhered, cells were serum-starved overnight. Agonist stimulation was performed by the addition of 5 μL agonist to the cells for 5 min (37° C.). Media was removed and 50 μL of lysis buffer added. After 15 min, a 4 μL sample was transferred to 384-well plate and 7 μL of detection mixture added. Plates were incubated for 2 h with gentle agitation in the dark and then read on a PHERAstar plate reader.
(§2) pEC50 and Emax figures were calculated from the resulting data for each receptor subtype.
(In general: Bead proximity is the source of the signal in Alpha formats.)

For test [2], the target named is T2, human muscarinic M1 receptor (Homo sapiens, UniProt P11229).
T2 sequence (P11229 1-460): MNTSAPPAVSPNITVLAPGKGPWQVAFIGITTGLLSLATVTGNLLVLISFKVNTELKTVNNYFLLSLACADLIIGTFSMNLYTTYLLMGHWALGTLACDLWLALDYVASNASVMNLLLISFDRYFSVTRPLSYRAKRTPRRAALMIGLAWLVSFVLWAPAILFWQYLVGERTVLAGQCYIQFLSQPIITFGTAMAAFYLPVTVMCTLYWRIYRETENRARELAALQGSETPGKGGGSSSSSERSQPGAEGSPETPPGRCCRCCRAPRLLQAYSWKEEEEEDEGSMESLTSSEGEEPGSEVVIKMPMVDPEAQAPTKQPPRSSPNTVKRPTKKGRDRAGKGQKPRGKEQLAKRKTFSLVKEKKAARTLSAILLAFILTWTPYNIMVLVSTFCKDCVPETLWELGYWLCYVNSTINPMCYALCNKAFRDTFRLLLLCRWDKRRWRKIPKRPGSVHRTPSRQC
Put plainly: Alphascreen Surefire phospho-ERK1/2 functional assay, M1. Particulars: for EC50: CHO cells stably expressing human M1, phospho-ERK1/2, read-out: pEC50 M1 (converted); for Emax: CHO, read-out: M1 % Emax cf. ACh, CHO cells stably expressing human M1, Emax relative to ACh. A digest of the protocol: (§3)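 Read-out: AlphaScreen SureFire signal for phospho-ERK1/2 in lysates of stably transfected CHO cells, read after 2 h in the dark. Cells were serum-starved overnight and given agonist for 5 min at 37 °C. Values are pEC50 and Emax.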

For test [3], the target named is T3, human muscarinic M4 receptor (Homo sapiens, UniProt P08173).
T3 construct: expressed in transfected cells
T3 sequence (P08173 1-479): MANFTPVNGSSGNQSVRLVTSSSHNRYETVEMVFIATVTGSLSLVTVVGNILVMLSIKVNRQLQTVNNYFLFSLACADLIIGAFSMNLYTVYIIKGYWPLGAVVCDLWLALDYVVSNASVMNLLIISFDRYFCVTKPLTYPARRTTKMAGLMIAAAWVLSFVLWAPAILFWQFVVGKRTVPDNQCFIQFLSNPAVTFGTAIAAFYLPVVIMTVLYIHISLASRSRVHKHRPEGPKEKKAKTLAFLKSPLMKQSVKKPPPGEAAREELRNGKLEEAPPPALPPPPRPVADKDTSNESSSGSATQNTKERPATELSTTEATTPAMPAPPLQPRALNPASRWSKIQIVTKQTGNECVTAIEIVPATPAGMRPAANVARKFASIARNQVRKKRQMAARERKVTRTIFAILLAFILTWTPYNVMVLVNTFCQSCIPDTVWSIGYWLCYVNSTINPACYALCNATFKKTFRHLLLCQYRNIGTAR
Put plainly: Alphascreen Surefire phospho-ERK1/2 functional assay, M4. The following applies: for EC50: phospho-ERK1/2, read-out: pEC50 M4 (converted); for Emax: CHO, read-out: M4 % Emax cf. ACh, CHO cells stably expressing human M4. The gist of the method:
as §3

The target in test [4] is T4, human muscarinic M3 receptor (Homo sapiens, UniProt P20309).
T4 construct: expressed in transfected cells
The test is described as follows: Alphascreen Surefire phospho-ERK1/2 functional assay, M3. The following applies: for EC50: CHO cells stably expressing human M3, phospho-ERK1/2, read-out: pEC50 M3 (converted); for Emax: CHO, read-out: M3 % Emax cf. ACh. As for the experimental part:
as §1, §2

Where [5] appears, read: CHO cells stably expressing human M4.

What is called Emax is the greatest response seen or fitted, relative to the assay's reference.

T4 sequence (P20309 whole entry): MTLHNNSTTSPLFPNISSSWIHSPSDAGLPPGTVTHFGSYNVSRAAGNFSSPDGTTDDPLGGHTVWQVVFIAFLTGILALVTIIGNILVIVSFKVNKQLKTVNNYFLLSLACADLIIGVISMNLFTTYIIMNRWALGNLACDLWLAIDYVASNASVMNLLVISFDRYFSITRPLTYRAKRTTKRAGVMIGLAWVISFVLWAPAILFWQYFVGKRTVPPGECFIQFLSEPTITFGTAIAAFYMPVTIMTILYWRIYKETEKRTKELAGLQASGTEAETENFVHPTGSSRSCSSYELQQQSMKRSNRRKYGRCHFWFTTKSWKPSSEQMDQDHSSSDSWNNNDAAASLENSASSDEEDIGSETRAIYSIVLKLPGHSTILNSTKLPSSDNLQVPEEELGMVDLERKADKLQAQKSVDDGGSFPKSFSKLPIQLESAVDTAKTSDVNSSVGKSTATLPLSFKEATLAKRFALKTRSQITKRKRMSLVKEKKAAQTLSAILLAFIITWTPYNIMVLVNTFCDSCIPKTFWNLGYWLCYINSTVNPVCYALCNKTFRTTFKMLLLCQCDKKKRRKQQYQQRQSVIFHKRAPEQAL

Consider `N#CC1(c2ccccc2)CCC(N2CCCN(C(=O)OCCF)CC2)CC1` (mixture of isomers) [3-29 mixture of isomers], for which the EC50 in test [1] was more than 20000 nM; in test [2], 537 nM; in test [3] (setting [5]), 200 nM; in test [4] it was more than 20000 nM. Further, the maximum response (Emax) in test [1] worked out at 3%; in test [2], 75%; in test [3] (Emax relative to ACh) it was 68%; in test [4], 3%.
On to `CCOC(=O)N1CCCN(C2CCC(C#N)(c3ccc(OC)cn3)CC2)CC1` (single isomer, unassigned) [3-19 Isomer 2], for which the EC50 in test [1] was more than 20000 nM; in test [2] it was 30.2 nM; in test [3] (setting [5]), 1740 nM; in test [4], more than 20000 nM. Also, the Emax was found to be 5% in test [1], 101% in test [2], 39% in test [3] (Emax relative to ACh) and 6% in test [4].
As to `CCc1noc([C@H]2CC[C@@H](NC3CCC(C#N)(c4ccccc4)CC3)C2)n1` (single isomer, unassigned) [19-2 Isomer 2], the EC50 in test [1] is 2400 nM; in test [2], 191 nM; in test [3] (setting [5]), 138 nM; in test [4] it was more than 20000 nM. For the same molecule, the maximal response (Emax) in test [1] was 35%; in test [2] it was 118%; in test [3] (Emax relative to ACh), 96%; in test [4], 5%.
For the molecule `O=C1Nc2ccccc2C12CCC(N[C@@H]1CC[C@H](c3nc(C(F)(F)F)no3)C1)CC2` (single isomer, unassigned) [24-1 Isomer 1], the EC50 in test [1] is more than 20000 nM; in test [2], 219 nM; in test [3] (setting [5]), 105 nM; in test [4] it was more than 20000 nM. Further, the maximal response (Emax) came out at 16% in test [1], 89% in test [2], 62% in test [3] (Emax relative to ACh) and 23% in test [4].
For the molecule `COC(=O)N1CCCN(C2CCC(C#N)(c3ccccc3)CC2)CC1` (mixture of isomers) [3-28 mixture of isomers], the EC50 in test [1] was more than 20000 nM; in test [2], 776 nM; in test [3] (setting [5]), 245 nM; in test [4], more than 20000 nM. Further, the Emax in test [1] stood at 15%; in test [2] it was 116%; in test [3] (Emax relative to ACh) it was 91%; in test [4], 7%.
Turning to `COc1ccc2c(c1)C1(CCC(N3CCC4(CC(c5nc(C)no5)C4)C3)CC1)C(=O)N2` (single isomer, unassigned) [26-2 Isomer 1], the EC50 is more than 20000 nM in test [1], 16.2 nM in test [2], 81.3 nM in test [3] (setting [5]) and more than 20000 nM in test [4]. Moreover, the Emax amounted to 6% in test [1], 38% in test [2] and 4% in test [4]. For the same molecule, in test [3] (CHO cells stably expressing human M4, Emax relative to ACh), the “M4 % Emax cf. ACh” value is on record as 35%.
Consider `Cc1ccc2c(c1)NC(=O)C21CCC(N2CCC[C@@H](c3nc(C)no3)C2)CC1` (single isomer, unassigned) [22-4 Isomer 1], for which the EC50 in test [1] is more than 20000 nM; in test [2] it was 79.4 nM; in test [3] (setting [5]), 219 nM; in test [4], more than 20000 nM. The Emax stood at 20% in test [1], 76% in test [2], 39% in test [3] (Emax relative to ACh) and 17% in test [4].
Turning to `CCOC(=O)N1CCC2(CCN(C3CCC4(CC3)C(=O)Nc3ccccc34)CC2)C1` (single isomer, unassigned) [12-1 isomer 1], the EC50 in test [1] is more than 20000 nM; in test [2] it was 13.8 nM; in test [3] (setting [5]), 4.79 nM; in test [4], more than 20000 nM. Moreover, the maximum response (Emax) is 18% in test [1], 109% in test [2], 82% in test [3] (Emax relative to ACh) and 1% in test [4].
On to `CCOC(=O)N1CCCN(C2CCC(C#N)(c3ccccc3C)CC2)CC1` (mixture of isomers) [3-7 mixture of isomers], for which the EC50 was more than 20000 nM in test [1], 389 nM in test [2], 1700 nM in test [3] (setting [5]) and more than 20000 nM in test [4]. For the same molecule, the Emax in test [1] was 35%; in test [2], 101%; in test [3] (Emax relative to ACh), 48%; in test [4] it was 34%.
In the case of `Cc1ccc2c(c1)C1(CCC(N3CCC4(CC(c5nc(C)no5)C4)C3)CC1)C(=O)N2` (single isomer, unassigned) [26-1 Isomer 2], the EC50 in test [1] was more than 20000 nM; in test [2], 15.1 nM; in test [3] (setting [5]), 40.7 nM; in test [4], more than 20000 nM. Besides, the Emax turned out to be 22% in test [1], 74% in test [2], 50% in test [3] (Emax relative to ACh) and 7% in test [4].
`CCOC(=O)N1CCCN(C2CCC3(CC2)C(=O)Nc2ccc(C)cc23)CC1` (single isomer, unassigned) [4-7 isomer 1]: the EC50 in test [1] was more than 20000 nM; in test [2], 44.7 nM; in test [3] (setting [5]), 5370 nM; in test [4], more than 20000 nM. The maximum response (Emax) in test [1] is 16%; in test [2], 115%; in test [3] (Emax relative to ACh), 100%; in test [4], 20%.
In the case of `CCc1noc(C2CC3(C2)CN(C2CCC4(CC2)C(=O)Nc2ccccc24)C3)n1` (single isomer, unassigned) [25-1 Isomer 1], the EC50 in test [1] was more than 20000 nM; in test [2], 617 nM; in test [3] (setting [5]), 155 nM; in test [4] it was more than 20000 nM. The Emax was found to be 13% in test [1], 43% in test [2], 70% in test [3] (Emax relative to ACh) and 6% in test [4].
Turning to `CCOC(=O)N[C@H]1CCN(C2CCC3(CC2)C(=O)Nc2cc(C)ccc23)C1` (single isomer, unassigned) [2-4 isomer 1], the EC50 in test [1] is more than 15800 nM; in test [2] it was 66.1 nM; in test [3] (setting [5]) it was more than 15800 nM; in test [4], more than 15800 nM. Besides, the Emax in test [1] worked out at 3%; in test [2], 65%; in test [3] (Emax relative to ACh) it was 11%; in test [4], 11%.
Take `Cc1noc([C@H]2CC[C@@H](NC3CCC(C#N)(c4ccccn4)CC3)C2)n1` (single isomer, unassigned) [19-1 Isomer 2]: the EC50 was more than 20000 nM in test [1], 1740 nM in test [2], 224 nM in test [3] (setting [5]) and more than 20000 nM in test [4]. The Emax in test [1] stood at 21%; in test [2], 45%; in test [3] (Emax relative to ACh) it was 83%; in test [4] it was 8%.

For the origin of these results see patent US10759751B2, “Substituted spirocyclohexanes as muscarinic M1 receptor and/or M4 receptor agonists” (Heptares Therapeutics Limited, priority 2016, dated 2020).
